Test results from patent US9738610B2, “Indazole derivatives and uses thereof” (Whitehead Institute for Biomedical Research, priority 2012, dated 2017).
Values after ≈ are worked out from the molar mass of the structure shown. Where two headings read alike, the source gives them in different places.

Columns and labels:
C. albicans CaCi-2 [1] = experiment: CaCi-2 growth inhibition in the presence of 8 μg/ml fluconazole (Alamar Blue); format: cell-based, Candida albicans; conditions: for IC50: in the presence of fluconazole, read-out: Target Potency (μM) Mean ± S.E.M CaCi-2^a IC50
Method: Fluconazole was obtained from Sequoia Research Products, Ltd. and prepared in a 2 mg/ml stock solution in phosphate buffered saline (PBS). […] PBS (Catalog No. 21-040-CV) without calcium and magnesium was obtained from Cellgro. Penicillin/Streptomycin (Pen/Strep) was obtained from Gibco and prepared 100× in PBS.
RPMI medium (1×) was prepared by dissolving 10.4 g powdered medium in 800 ml water. A buffer of 34.52 g MOPS was added. While stirring, pH was adjusted to 7.0 with 10 N NaOH. Next, 10 ml uridine solution and 50 ml glucose solution were added. The final volume was adjusted to 1000 ml, and filter sterilized.
The following yeast strains were used in this study: C. albicans CaCi-2. Fungal inoculum was prepared as follows: 500 μl of strain was inoculated from cryopreserved stock into a 250-ml shaker flask containing 30 ml growth medium and shaken overnight at 30° C. The optical density (OD 600) of 1 ml fungal culture in a cuvette was read using a standard optical density reader (Eppendorf BioPhotometer Plus), with growth medium as a background blank. The desired volume of fungal inoculums was diluted to desired volume of fungal inoculums according to the following formula: (1/OD measured)×(Desired Final Volume of Inoculum)×0.3=Volume of fungal culture (μl) to add to desired volume of growth medium. When added to media in wells, this yields a calculated starting OD of the fungal inoculum of 0.00015.
Fluconazole stock solution was added to the fungal inoculum to achieve 8 μg/ml. Pen/Strep was added to the media to a 1% concentration (v/v). A Thermo Combi nL was used to dispense 20 μl/well of assay media into all wells. Geldanamycin was dispensed in positive control wells using Thermo Combi nL for a final concentration of 3 μM. Then, 100 nl of test compound was pinned from compound plates into assay plates using a CyBi-Well pin tool. A further 20 μl/well of culture was dispensed into the assay media in all wells. The plates were incubated in a humidified (90% humidity) Liconic incubator at 37° C. without agitation for 48 hours. Alamar Blue was diluted 1:40 in Ca/Mg-free PBS. To all plates, […] of the diluted Alamar Blue was added to the plates to a final dilution factor of 1:200. The plates were incubated for an additional 2 hours. Then, Relative Fluorescence Intensity (RFU) of each well was read on standard plate reader as a measure of relative fungal growth.

C. albicans CaCi-2 [2] = experiment: Secondary single-agent (no-fluconazole) activity assay; format: cell-based, Candida albicans; conditions: read-out: Target Potency (μM) Mean ± S.E.M CaCi-2^b IC50
Method: Clear, flat-bottom, black, 384-well plates were obtained from Corning. […] Pen/Strep was obtained from Gibco and prepared 100× in PBS. Fluconazole was obtained from Sigma and prepared in 2 mg/ml stock solution in PBS. Alamar Blue was obtained from Biosource International (Catalog No. DAL1100). Phosphate buffered solution (PBS) without calcium and magnesium was obtained from Cellgro.
Fungal inoculum was prepared as follows: 500 μl of yeast was inoculated from cryopreserved stock into a 250-ml shaker flask containing 30 ml growth medium and shaken overnight (16 hours) at 30° C. The culture was spun down, and the broth was poured off and washed with RPMI medium. The culture was spun down again, and the broth was poured off and resuspended in RPMI medium. The OD 600 of 1 ml of fungal culture in a cuvette was read using a standard optical density reader with growth medium as a background blank. The desired volume of fungal inoculum was diluted to starting OD of the fungal inoculum of 0.00015 A600.
Pen/Strep was added to the media to a final 1% concentration. A Combi NL (Thermo) was used to dispense 20 μl/well of assay media into all wells. Geldanamycin (1.5 mM) and fluconazole (0.2 mg/ml) were mixed for the positive control. Then, 80 nl of positive control solution was dispensed into the positive control wells using Thermo Combi nL for a final concentration of 3 μM geldanamycin and 8 μg/ml fluconazole. Then, 100 nl of test compound were pinned from the compound plates into assay plates using a CyBi-Well pin tool. A further 20 μl/well of RPMI synthetic defined medium culture was dispensed into 384-well, black plates. Fungal suspension (20 μl/well) was dispensed into all wells. The plates were incubated in a humidified (90% humidity) Liconic incubator at 37° C. without agitation for 48 hours. Alamar Blue Reagent was diluted 1:40 in Ca/Mg-free PBS. To all plates, 6.4 μl/well of the diluted Alamar Blue was added to the plates to a final dilution factor of 1:200. The plates were incubated for 2 hours at room temperature. Next, RFU of wells was read on a standard plate reader as a measure of relative fungal growth.

C. albicans CaCi-8 = experiment: microbe, parasite or virus in culture; format: cell-based, Candida albicans; conditions: for IC50: in the presence of fluconazole, read-out: Target Potency (μM) Mean ± S.E.M CaCi-8^a IC50
Method: This subset was re-subjected to the primary assay and was also tested concurrently in two secondary assays. Secondary assay 1 measured chemosensitization of the more resistant CaCi-8 strain. Secondary assay 2 eliminated anything with inherently antifungal activity. […] A final assay (secondary assay 3) was incorporated to discard any compound displaying toxicity to mammalian fibroblasts. […] This screening campaign is also illustrated in FIG. 3B.
Those that inhibited growth in the resistant strain were also tested for toxicity against Candida in the absence of fluconazole and for toxicity against mammalian cells using a fluorescence reporter assay. The positive control for screening in the Candida and mammalian cell assays was the Hsp90 inhibitor geldanamycin (acting in concert with fluconazole; FIG. 4). Compounds that passed these four hurdles were binned through use of a Saccharomyces assay to determine whether the mechanism of action might be through the Hsp90 pathway, the calcineurin pathway, or an uncategorized mechanism.

Plasma stability = conditions: % remaining in human plasma after a 5-hour incubation
Plasma protein binding = conditions: % bound in human plasma
PBS solubility = conditions: PBS
[3] = tested on: NIH-3T3 mammalian fibroblasts; experiment: Counterscreen mammalian cell toxicity assay (fibroblast toxicity); format: cell-based, murine; conditions: for ** CaCi-2 to anti-target fold selectivity: fibroblast IC50 over CaCi-2 IC50 with fluconazole; for IC50: footnote: in the absence of fluconazole, read-out: Anti-target Potency (μM) Mean ± S.E.M Fibroblasts^b IC50
[4] = 37° C., 48 hours, with 8 μg/mL (26 μM) fluconazole, average of at least three experiments

| SMILES | IC50 (C. albicans CaCi-2 [1]) | IC50 (C. albicans CaCi-2 [2]; in the absence of fluconazole) | IC50 (C. albicans CaCi-8) | Plasma Stability (Plasma stability) | Plasma Protein Binding (Plasma protein binding) | PBS Solubility (PBS solubility) | IC50 (C. albicans CaCi-2 [2]) | ** CaCi-2 to anti-target fold selectivity [3] | IC50 [3] | IC50 (C. albicans CaCi-2 [2]; Candida albicans, CACI2, in the absence of fluconazole) | IC50 ([3]; Mus musculus, NIH3T3) | solubility (PBS solubility; aqueous buffer) | CaCi-2 IC50 (μM) (C. albicans CaCi-2 [1]; [4]) | CaCi-8 IC50 (μM) (C. albicans CaCi-8; [4]) |
| --- | --- | --- | --- | --- | --- | --- | --- | --- | --- | --- | --- | --- | --- | --- |
| c1ccc(-c2n[nH]c3ccccc23)cc1 [Compound 300385] | 3 µM | > 26 µM | > 26 µM | > 99% | 98% |  |  |  |  |  |  |  |  |  |
| COC(=O)Cn1nc(-c2ccccc2)c2ccccc21 [Compound 3243873] | 1.86 ± 0.99 µM | > 26 µM | 2.53 ± 1.13 µM | < 1.0% | 96% |  |  |  |  |  |  |  |  |  |
| CNC(=O)Cn1nc(-c2ccccc2)c2ccccc21 [Compound 13330955] |  | > 26 µM | > 26 µM | > 99% | 93% | < 18.5 µM |  |  |  |  |  |  |  |  |
| O=C(Cn1nc(-c2ccccc2)c2ccccc21)N1CCc2ccccc2C1 [Compound 20877557] |  | > 26 µM | > 26 µM | 97% | > 99% | < 1.0 µM |  |  |  |  |  |  |  |  |
| COC(=O)[C@@H](C)n1nc(-c2ccccc2)c2ccccc21.COC(=O)[C@H](C)n1nc(-c2ccccc2)c2ccccc21 [Compound 49835813] | 6.56 ± 0.79 µM | > 26 µM | 15.8 µM | 61% | > 99% | < 1.0 µM |  |  |  |  |  |  |  |  |
| COC(=O)Cn1nc(-c2ccccc2)c2ccc(F)cc21 [Compound 49835815] | 5.1 µM | > 26 µM | 8.34 µM | 1.1% | 97% |  |  |  |  |  |  |  |  |  |
| CCC(=O)Cn1nc(-c2ccccc2)c2ccccc21 [Compound 49835816] |  |  | > 26 µM | 98% | 99% | < 1.0 µM | > 26 µM |  |  |  |  |  |  |  |
| COC(=O)Cn1nc(-c2ccccc2)c2ccc(Cl)cc21 [Compound 49835818] | 3.79 µM | > 26 µM | 8.57 µM | 90% | 18% |  |  | 7.9 | 29.9 µM |  |  |  |  |  |
| COC(=O)Cn1nc(-c2cccc(C)c2)c2ccccc21 [Compound 49835823] | 0.65 µM | > 26 µM | 1.34 µM | 4.7% | 98% |  |  |  |  |  |  |  |  |  |
| O=C1OCCC1n1nc(-c2ccccc2)c2ccccc21 (stereo not shown) [Compound 49835834] |  | > 26 µM | > 26 µM | PBS Solubility: <1.0 μM Plasma Protein Binding: ND Plasma Stability: <1.0% Purity (UPLC): 65% |  | PBS Solubility: <1.0 μM Plasma Protein Binding: ND Plasma Stability: <1.0% Purity (UPLC): 65% |  |  |  |  |  |  |  |  |
| COC(=O)CCn1nc(-c2ccccc2)c2ccccc21 [Compound 49835835] |  | > 26 µM | > 26 µM | 74% | > 99% | < 1.0 µM |  |  |  |  |  |  |  |  |
| COC(=O)Cn1nc(-c2ccccc2OC)c2ccccc21 [Compound 49835850] | 6.21 µM | > 26 µM | 10.2 µM | < 1.0% | 92% |  |  | 0.17 | 1.54 µM |  |  |  |  |  |
| COC(=O)Cn1ncc2ccccc21 [Compound 49835852] |  |  |  | < 1.0% | < 1.0% |  |  |  | 0.74 µM |  |  |  |  |  |
| COC(=O)Cn1nc(-c2ccc(C(F)(F)F)cc2)c2ccccc21 [Compound 49835854] |  | > 26 µM | > 26 µM | 17% | 97% |  |  |  | 0.68 µM |  |  |  |  |  |
| COC(=O)Cn1nc(-c2cncnc2)c2ccccc21 [Compound 49835858] |  |  |  | < 1.0% |  |  |  |  |  | > 26 µM | > 6 µM | 155 µM (≈ 41.5 µg/mL) |  |  |
| COC(=O)Cn1nc(-c2ccccc2C)c2ccccc21 [Compound 49835865] | 5.5 µM | > 26 µM | 7.25 µM | < 1.0% | < 1.0% |  |  |  |  |  |  |  |  |  |
| COC(=O)Cn1nc(-c2ccccc2)c2ccc(C)cc21 [Compound 49835872] | 3.14 µM | > 26 µM | 9.62 µM | 6.5% | 98% |  |  | 10 | 31.6 µM |  |  |  |  |  |
| COC(=O)Cn1nc(-c2ccccc2)c2cc(C)ccc21 [Compound 49835874] | 3.28 µM | > 26 µM | 5.33 µM | < 1.0% | 95% |  |  | 21 | 69.5 µM |  |  |  |  |  |
| COC(=O)Cn1nc(-c2ccc(F)cc2)c2ccccc21 [Compound 49835876] | 6.26 µM | > 26 µM | 10.2 µM | < 1.0% | 93% |  |  |  |  |  |  |  |  |  |
| COC(=O)Cn1nc(-c2cccc(OC)c2)c2ccccc21 [Compound 49835877] | 0.44 µM | > 26 µM | 1.21 µM | 2.6% | 95% |  |  |  | > 26 µM |  |  |  |  |  |
| CN(C)C(=O)Cn1nc(-c2ccccc2)c2ccccc21 [Compound 49835882] |  |  | > 26 µM | 98% | 98% | 325.5 µM | > 26 µM |  |  |  |  |  |  |  |
| COC(=O)Cn1nc(-c2ccccc2)c2cc(F)ccc21 [Compound 49835889] | 4.63 µM | > 26 µM | 6.98 µM | 1.0% | > 96% |  |  |  |  |  |  |  |  |  |
| COC(=O)Cn1ncc2ccccc21 [—H] |  |  |  |  |  |  |  |  |  |  |  |  | inactive | inactive |
